Key:
[1] = Protocol: The compounds may be kept, for example, in closed vessels in a 4° C. refrigerator.
[2] = peak appears above the melting temperature; 2 degree/min under nitrogen flow
Protocol: TG and DSC studies were performed on Thermobalance, TG50 and differential scanning calorimeter, DSC 822 (Mettler, Toledo) in the range 25-200° C. under nitrogen flow at a heating rate of 2 degree/min.

N[C@@H](CO)C(=O)O.OO [Example 1, L-Serine Mono Hydrogen Peroxide Solvate C3H7NO3.H2O2]
hydrogen peroxide concentration on storage ([1]; room temperature, several months): maintained constant hydrogen peroxide concentration for several months | loss of active oxygen on storage ([1]; stored at room temperature for at least three weeks): no loss of active oxygen | exothermic decomposition peak (DSC) [2]: about 85 °C
